This note sets out measurements from patent US5760036A, “Aminediol protease inhibitors” (E. R. Squibb & Sons, Inc., priority 1995, dated 1998).

In the test the target is T1, HIV protease (Human immunodeficiency virus type 1 group M subtype B, UniProt P04585).
T1 construct: and purified protease
Kind of test: HIV Protease Assay. The test is classed as biochemical. The note with it: 4% DMSO, 450 μM substrate, pH 5.5, 30 minutes at 37° C., RP-HPLC; for HIV Protease % Inhibition at 10 μM: 10 μM inhibitor; for inhibition at 10 µM: pH 5.5, 10 μM inhibitor, read-out: HIV Protease % Inhibition at 10 μM. On the procedure: An HIV protease standard assay was performed in a 60 μl reaction medium containing 50 mM sodium acetate, pH 5.5, 100 μg/ml bovine serum albumen,450 μM substrate (H2 N-Val-Ser-Gln-Asn-(β-naphthyl-alanine)-Pro-Val-Ile-OH), and purified protease. The reaction medium was incubated for 30 minutes at 37° C., quenched by the addition of 140 μl 5% H3 PO4, then analyzed by reverse phase HPLC using UV220 detection. In a typical control assay, 7% of the substrate was hydrolyzed. Aminediol inhibitors of the present invention, listed in the following Table 1, were then employed in the assay, for which purpose they were prepared as a […] solution in DMSO, then diluted to 30 μM with 50 mM sodium acetate/bovine serum albumen. This working stock was then diluted three-fold into the protease reaction medium, for a final concentration of 10 μM inhibitor and 4% DMSO.

Consider `CC(C)(C)OC(=O)N[C@@H](Cc1ccccc1)[C@H](O)CNC[C@@H](O)[C@H](Cc1ccccc1)NC(=O)C(O)(CO)C(C)(C)C` (single isomer, unassigned; isomer b) [Compound 367, [1S-[1R*,2S*(2S*,3R*)]]-[3-[[3-[[2-Hydroxy-2-(hydroxymethyl)-3.3-dimethyl-l-oxobutyl]amino]-2-hydroxy-4-phenylbutyl]amino]-2-hydroxy-1-(phenylmethyl)propyl]carbamic acid. 1.1-dimethylethyl ester, isomer B], for which the “HIV Protease % Inhibition at 10 μM” value stood at 50%.

`CC(C)(CO)OC(=O)N[C@@H](Cc1ccccc1)[C@H](O)CNC[C@@H](O)[C@H](Cc1ccccc1)NC(=O)C1(O)CCCC1(C)C` (single isomer, unassigned; isomer b) [Compound 369, [1S-[1R*,2S*(2S*,3R*)]]-[r3-[[3-[[(2,2-Dimethyl-1-hydroxycyclopentyl)-carbonyl]amino]-2-hydroxy-4-phenylbutyl]amino]-2-hydroxy-1-(phenylmethyl)propyl]carbamic acid, 2-hydroxy-1,1-dimethylethyl ester. isomer B]: the “HIV Protease % Inhibition at 10 μM” value worked out at 96%. Take `COC(=O)NC(C)(C(=O)N[C@@H](Cc1ccccc1)[C@H](O)CNC[C@@H](O)[C@H](Cc1ccccc1)NC(=O)OC(C)(C)C)C(C)(C)C` (single isomer, unassigned; isomer b) [Compound 374, [1S-[1R*,2S*(2S*, 3R*)]]-[1-[[[3-[[3-[[(1,1-Dimethylethoxy)carbonyl]amino]-2-hydroxy-4-phenylbutyl]amino]-2-hydroxy-1-(phenylmethyl)propyl]amino]carbonyl]-1,2-dimethylpropyl]carbamic acid, methyl ester, isomer B]: the “HIV Protease % Inhibition at 10 μM” value amounted to 28%. For `CC(C)(C)OC(=O)N[C@@H](Cc1ccccc1)[C@H](O)CNC[C@@H](O)[C@H](Cc1ccccc1)NC(=O)C1(O)CCc2ccccc21` (single isomer, unassigned; isomer b) [Compound 376, [1S-[1R*,2S*(2S*, 3R*)]]-[3-[[3-[[(2,3-Dihydro-1-hydroxy-1H-inden-1-yl)carbonyl]amino]-2-hydroxy-4-phenylbutyl]amino]-2-hydroxy-1-(phenylmethyl)propyl]carbamic acid, 1.1-dimethylethyl ester, isomer B], the “HIV Protease % Inhibition at 10 μM” value is listed as 63%.

Take `CC(C)(C)OC(=O)N[C@@H](Cc1ccccc1)[C@H](O)CNC[C@@H](O)[C@H](Cc1ccccc1)NC(=O)C(C)(O)c1ccccn1` (single isomer, unassigned; isomer b) [Compound 382, [1S-[1R*,2S*(2S*, 3R*)]]-[2-Hydroxy-3-[[2-hydroxy-3-[[2-hydroxy-1-oxo-2-(2-pyridinyl)propyl]amino]-4-phenylbutyl]amino]-1-(phenylmethyl)propyl]carbamic acid, 1.1-dimethylethyl ester, isomer B]: the “HIV Protease % Inhibition at 10 μM” value was 89%. In the case of `CNC(=O)C(O)(C(=O)N[C@@H](Cc1ccccc1)[C@H](O)CNC[C@@H](O)[C@H](Cc1ccccc1)NC(=O)OC(C)(C)C)C(C)(C)C` (single isomer, unassigned; isomer b) [Compound 385, [1S-[1R*,2S*(2S*, 3R*)]]-[3-[[3-[[2-Hydroxy-3,3-dimethyl-2-[(methylamino)carbonyl]-1-oxobutyl]amino]-2-hydroxy-4-phenylbutyl]amino]-2-hydroxy-1-(phenylmethyl)propyl]carbamic acid, 1,1-dimethylethyl ester, isomer B], the “HIV Protease % Inhibition at 10 μM” value is given as 99%. As to `CC(C)(C)OC(=O)N1CCC[C@H]1[C@H](O)CNC[C@H](O)[C@@H]1CCCN1C(=O)OC(C)(C)C` [Compound 8, [S-(R*,R*)]-2-[2-[[[S-(R*,S*)]-2-[1-[(1,1-Dimethylethoxy)carbonyl]-pyrrolidinyl]-2-hydroxyethyl]amino]-hydroxyethyl]-1-pyrrolidine-carboxylic acid, (1,1-dimethylethyl) ester], the inhibition at 10 µM was determined as 2%. Same read-out and setting: with `CC(C)(C)OC(=O)N1Cc2ccccc2C[C@H]1[C@@H](O)CNC[C@H](O)[C@@H]1Cc2ccccc2CN1C(=O)OC(C)(C)C` [Compound 10, [S-(R*,R*)]-3,3'-[Iminobis(1-hydroxy-2,1-ethanediyl)]-bis[2(1H)-iso-quinolinecarboxylic acid], bis(1,1-dimethylethyl) ester] the figure was 1%; with `CC(C)(C)OC(=O)N1Cc2ccccc2C[C@H]1[C@H](O)CNC[C@H](O)[C@@H]1Cc2ccccc2CN1C(=O)OC(C)(C)C` [Compound 12, [S-(R*,R*)]-3-[2-[[[-(R*,S*)]-2-[2-[(1,1-Dimethylethoxy)carbonyl]-1,2,3,4-tetrahydro-3-isoquinolinyl]-2-hydroxyethyl]amino]-1-hydroxyethyl]-3,4-dihydro-2(1H)-isoquinolinecarboxylic acid, (1,1-dimethylethyl) ester], 1%; with `CC(C)(C)OC(=O)N[C@@H](Cc1ccccc1)[C@H](O)CNC[C@@H](O)[C@@H](Cc1ccccc1)NC(=O)OC(C)(C)C` [Compound 26i, [1R-[1R*,2R*(2R*,3S*)]]-3-[[3-[[(1,1-Dimethylethoxy)carbonyl]amino]-2-hydroxy-4-phenylbutyl]amino]-2-hydroxy-1-(phenylmethyl)propyl]carbamic acid, 1,1-dimethylethyl ester], 57%. Turning to `CC(C)(C)OC(=O)N[C@@H](Cc1ccccc1)[C@H](O)CNC[C@H](O)[C@@H](Cc1ccccc1)NC(=O)OC(C)(C)C` [Compound 26ii, [1R-[1R*,2S*(2R*,3S*)]]-3-[[3-[[(1,1-Dimethylethoxy)carbonyl]amino]-2-hydroxy-4-phenylbutyl]amino]-2-hydroxy-1-(phenylmethyl)-propyl]carbamic acid, 1,1-dimethylethyl ester], the inhibition at 10 µM was 41%. Regarding `CC(C)(C)OC(=O)N[C@@H](Cc1ccccc1)[C@@H](O)CNCC(O)[C@@H](Cc1ccccc1)NC(=O)OC(C)(C)C` (stereo partly drawn) [Compound 27, [1S-[1R*,2R*(3S*)]]-[3-[[3-[[(1,1-Dimethylethoxy)carbonyl]amino]-2-hydroxy-4-phenylbutyl]amino]-2-hydroxy-1-(phenylmethyl)propyl]-carbamic acid 1,1-dimethylethyl ester], the inhibition at 10 µM came to 19%. For the compound `CC(C)[C@H](N)C(=O)N[C@@H](Cc1ccccc1)[C@H](O)CNC[C@@H](O)[C@H](Cc1ccccc1)NC(=O)[C@@H](N)C(C)C` [Compound 43, [S-(1S*,2R*)]-N,N'-[Iminobis[2-hydroxy-1-(phenylmethyl)-3,1-propanediyl]]bis-L-valinamide], the inhibition at 10 µM was 21%. On the same count and under the same terms, with `CC(C)(C)OC(=O)N[C@@H](Cc1ccccc1)C(=O)N[C@@H](Cc1ccccc1)[C@H](O)CNC[C@@H](O)[C@H](Cc1ccccc1)NC(=O)OC(C)(C)C` [Compound 56, [S-[1R*,2S*(2S*,3R*)]-N^2-[(1,1-Dimethylethoxy)carbonyl]-N-[3-[[3-[[(1,1-dimethlethoxy)carbonyl]amino]-2-hydroxy-4-phenylbutyl]-amino]-2-hydroxy-1-(phenylmethyl)propyl]-L-phenylalaninamide] the figure was 47%; with `CC(C)[C@H](N)C(=O)N[C@@H](Cc1ccccc1)[C@H](O)CNC[C@@H](O)[C@H](Cc1ccccc1)NC(=O)OC(C)(C)C` [Compound 59, [S-[1R*,2S*(2S*,3R*)-N-[3 [[3-[[(1,1-Dimethylethoxy)carbonyl]amino]-2-hydroxy-4-phenylbutyl]amino]-2-hydroxy-1-(phenylmethyl)-propyl-L-valinamide], 45%.

In general, inhibition refers to the relative decrease from the control value, in per cent.
